Experimental findings from ChEMBL document CHEMBL1133410, “Synthesis of enantiomerically pure (+)- and (-)-18-methoxycoronaridine hydrochloride and their preliminary assessment as anti-addictive agents” (Bioorg Med Chem Lett, 2000) are described below.

The assay addresses Mu-type opioid receptor (Bos taurus, UniProt P79350). Kind of assay: Binding affinity against Opioid receptor mu 1 of calf cortex using […] as radioligand.

Where a name gives a salt, the structure may show the parent alone.

Chain of Mu-type opioid receptor (P79350 whole entry): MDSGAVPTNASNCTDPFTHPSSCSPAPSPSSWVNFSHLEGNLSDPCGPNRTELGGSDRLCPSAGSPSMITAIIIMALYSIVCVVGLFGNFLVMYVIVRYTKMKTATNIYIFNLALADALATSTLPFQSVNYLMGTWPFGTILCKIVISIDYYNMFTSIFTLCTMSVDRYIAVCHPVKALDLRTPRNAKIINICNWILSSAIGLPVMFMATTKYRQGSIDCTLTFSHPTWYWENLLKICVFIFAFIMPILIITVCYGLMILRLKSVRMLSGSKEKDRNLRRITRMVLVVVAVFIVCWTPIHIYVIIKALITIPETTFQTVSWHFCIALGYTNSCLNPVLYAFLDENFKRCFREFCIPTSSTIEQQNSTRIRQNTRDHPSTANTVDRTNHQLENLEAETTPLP

On to `COCCC1CC2CN3CCc4c([nH]c5ccccc45)C(C(=O)OC)(C2)C13` (racemic) [ZOLUNICANT HYDROCHLORIDE], for which affinity was put at a Ki of 1100 nM.

Take `COCCC1CC2CN3CCc4c([nH]c5ccccc45)C(C(=O)OC)(C2)C13` (stereo in doubt; (+)) [ZOLUNICANT HYDROCHLORIDE]: the Ki was 740 nM.

On to `COCCC1CC2CN3CCc4c([nH]c5ccccc45)C(C(=O)OC)(C2)C13` (stereo in doubt; (-)) [ZOLUNICANT HYDROCHLORIDE], for which affinity was put at a Ki of 13000 nM.
